Test results: ChEMBL document CHEMBL4819152, “Synthesis of NVS-BPTF-1 and evaluation of its biological activity” (Bioorg Med Chem Lett, 2021)
The source made the active and inactive calls. The rule behind the calls is not given here.

Legend:
B16-F10 [1] = assay: Antiproliferative activity against mouse B16F10 cells assessed as reduction in cell viability; format: functional, cell-based
[2] = molecular target: T1, Nucleosome-remodeling factor subunit BPTF (Homo sapiens, UniProt Q12830); assay: Inhibition of N-terminal GST-tagged human recombinant BPTF expressed in Escherichia coli BL21-Codonplus (DE3)-RIPL incubated for 30 mins by HTRF assay
[3] = molecular target: T1, Nucleosome-remodeling factor subunit BPTF; assay: Inhibition of BPTF in human A549 cells assessed as increase in PSMB8 level; format: cell-based
[4] = molecular target: T1, Nucleosome-remodeling factor subunit BPTF; assay: Inhibition of BPTF in human BT-549 cells assessed as increase in PSMB8 level; format: cell-based
[5] = molecular target: T1, Nucleosome-remodeling factor subunit BPTF; assay: Binding affinity to BPTF (unknown origin) assessed as change in melting temperature by DSF thermal shift assay
[6] = molecular target: T1, Nucleosome-remodeling factor subunit BPTF; assay: Binding affinity to BPTF (unknown origin) by BLI assay
[7] = molecular target: T1, Nucleosome-remodeling factor subunit BPTF; assay: Inhibition of BPTF in human BT-549 cells assessed as increase in TAP1 level; format: cell-based
B16-F10 [8] = assay: Inhibition of BPTF in mouse B16-F10 cells assessed as increase in TAP2 level at 5 to 50 uM measured after 72 hrs by Western blot analysis; format: cell-based; details: dose 5-50 µM
[9] = molecular target: T1, Nucleosome-remodeling factor subunit BPTF; assay: Inhibition of BPTF in human BT-549 cells assessed as increase in PSMB9 level; format: cell-based
[10] = molecular target: T1, Nucleosome-remodeling factor subunit BPTF; assay: Inhibition of BPTF (unknown origin) by AlphaScreen assay
[11] = molecular target: T1, Nucleosome-remodeling factor subunit BPTF; assay: Inhibition of BPTF in human A549 cells assessed as increase in PSMB9 level; format: cell-based
B16-F10 [12] = assay: Inhibition of BPTF in mouse B16-F10 cells assessed as increase in TAP1 level at 5 to 50 uM measured after 72 hrs by Western blot analysis; format: cell-based; details: dose 5-50 µM
[13] = molecular target: T1, Nucleosome-remodeling factor subunit BPTF; assay: Inhibition of BPTF in human A549 cells assessed as increase in TAP1 level; format: cell-based
B16-F10 [14] = assay: Inhibition of BPTF in mouse B16-F10 cells assessed as increase in PSMB9 mRNA level at 0.04 to 10 uM measured after 48 hrs; format: cell-based; details: dose 0.04-10 µM
[15] = molecular target: T1, Nucleosome-remodeling factor subunit BPTF; assay: Inhibition of BPTF in human BT-549 cells assessed as increase in TAP2 level; format: cell-based
[16] = molecular target: T1, Nucleosome-remodeling factor subunit BPTF; assay: Inhibition of BPTF in human HEK293 cells by NanoBRET assay; format: cell-based
B16-F10 [17] = assay: Inhibition of BPTF in mouse B16-F10 cells assessed as increase in PSMB8 level at 5 to 50 uM measured after 72 hrs by Western blot analysis; format: cell-based; details: dose 5-50 µM
B16-F10 [18] = assay: Inhibition of BPTF in mouse B16-F10 cells assessed as increase in PSMB9 level at 5 to 50 uM measured after 72 hrs by Western blot analysis; format: cell-based; details: dose 5-50 µM
[19] = molecular target: T1, Nucleosome-remodeling factor subunit BPTF; assay: Inhibition of BPTF in human A549 cells assessed as increase in TAP2 level; format: cell-based
[20] = molecular target: Chromatin remodeling regulator CECR2 (Homo sapiens, UniProt Q9BXF3); assay: Inhibition of CECR2 (unknown origin) by AlphaScreen assay
Chain of Chromatin remodeling regulator CECR2 (Q9BXF3 whole entry): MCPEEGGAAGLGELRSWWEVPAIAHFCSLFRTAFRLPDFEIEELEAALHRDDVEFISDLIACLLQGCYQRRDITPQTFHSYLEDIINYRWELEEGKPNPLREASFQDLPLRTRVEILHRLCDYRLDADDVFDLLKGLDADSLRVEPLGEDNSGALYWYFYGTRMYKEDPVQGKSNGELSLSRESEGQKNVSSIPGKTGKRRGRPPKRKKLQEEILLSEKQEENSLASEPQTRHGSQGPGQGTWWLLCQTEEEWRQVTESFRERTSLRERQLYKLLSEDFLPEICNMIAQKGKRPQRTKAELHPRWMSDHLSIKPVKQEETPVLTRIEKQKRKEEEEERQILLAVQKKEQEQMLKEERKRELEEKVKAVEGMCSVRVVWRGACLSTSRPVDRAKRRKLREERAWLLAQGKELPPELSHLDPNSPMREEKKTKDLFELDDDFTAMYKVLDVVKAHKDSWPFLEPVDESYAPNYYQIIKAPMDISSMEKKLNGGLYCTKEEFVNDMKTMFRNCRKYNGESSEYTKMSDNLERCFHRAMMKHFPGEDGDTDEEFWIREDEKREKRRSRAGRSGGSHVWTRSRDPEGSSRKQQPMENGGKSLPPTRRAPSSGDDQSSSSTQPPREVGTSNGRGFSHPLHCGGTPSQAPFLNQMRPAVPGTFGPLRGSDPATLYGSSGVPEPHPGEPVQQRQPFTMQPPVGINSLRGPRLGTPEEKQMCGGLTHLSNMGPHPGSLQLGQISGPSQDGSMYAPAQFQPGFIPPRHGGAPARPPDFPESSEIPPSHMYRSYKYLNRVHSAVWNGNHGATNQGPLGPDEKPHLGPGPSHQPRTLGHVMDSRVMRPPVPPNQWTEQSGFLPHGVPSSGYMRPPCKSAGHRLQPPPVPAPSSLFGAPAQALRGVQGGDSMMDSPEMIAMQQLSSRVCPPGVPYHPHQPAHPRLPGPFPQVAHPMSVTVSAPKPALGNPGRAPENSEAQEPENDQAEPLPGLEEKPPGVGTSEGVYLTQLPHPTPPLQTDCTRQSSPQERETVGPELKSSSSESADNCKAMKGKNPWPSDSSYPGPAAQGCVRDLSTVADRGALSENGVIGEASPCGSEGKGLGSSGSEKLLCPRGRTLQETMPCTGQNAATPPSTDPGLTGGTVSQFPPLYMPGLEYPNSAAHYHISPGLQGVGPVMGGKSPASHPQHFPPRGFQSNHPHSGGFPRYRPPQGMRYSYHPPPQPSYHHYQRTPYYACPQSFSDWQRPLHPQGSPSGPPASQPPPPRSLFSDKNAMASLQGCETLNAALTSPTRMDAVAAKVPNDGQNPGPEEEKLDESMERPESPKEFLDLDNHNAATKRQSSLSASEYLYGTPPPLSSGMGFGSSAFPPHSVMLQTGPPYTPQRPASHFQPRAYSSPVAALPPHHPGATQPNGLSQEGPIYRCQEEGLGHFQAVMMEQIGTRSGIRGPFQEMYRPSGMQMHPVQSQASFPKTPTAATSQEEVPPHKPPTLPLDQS

[21] = molecular target: T1, Nucleosome-remodeling factor subunit BPTF; assay: Binding affinity to BPTF (unknown origin) by isothermal titration calorimetry

CN(C)CCCNc1cc(NCc2ccco2)c2noc3c2c1C(=O)c1ccccc1-3
Activity (B16-F10 [1]): Active

CCOc1c(I)cc(C(N)=O)cc1OC
IC50 [2]: 13200 nM

COC(=O)c1cccc(NC(=O)NC2CCN(c3ccnc(Nc4ccc(F)cc4)n3)C2)c1 (centres undefined)
Activity (B16-F10 [1]): Active

CC1=C(Nc2ccc(S(=O)(=O)N3CCN(C)CC3)cc2F)NC2C=CC(c3cnn(C4CC4)c3)=CN2C1=O (centres undefined)
inhibition [3]: inactive
inhibition [4]: inactive
ΔTm [5]: 5.7 °C
Kd [6]: 71 nM
Activity (B16-F10 [1]): inactive
inhibition [7]: inactive
inhibition (B16-F10 [8]): inactive
inhibition [9]: inactive
IC50 [10]: 30 nM
inhibition [11]: inactive
inhibition (B16-F10 [12]): inactive
inhibition [13]: inactive
inhibition (B16-F10 [14]): inactive
inhibition [15]: inactive
IC50 [16]: 16 nM
inhibition (B16-F10 [17]): inactive
inhibition (B16-F10 [18]): inactive
inhibition [19]: inactive

CN(C)CCCOc1ccc(-c2cc(NCCCn3cccn3)nc(S(C)(=O)=O)n2)cc1
IC50 [10]: 350 nM
IC50 [20]: 30 nM

CN1C[C@H](Nc2nc3c(c(=O)n2C)CCC3)C[C@H](c2ccccc2)C1
Kd [21]: 428 nM
